Data from US20260273028A1, “PEROXIDASE COMPOSITIONS CONTAINING IMPROVED ENHANCING AGENTS” (FLEN HEALTH PHARMA NV, priority 2022, published 2026).

Tests used:
[1] = system: C. albicans (ATCC®10231™); assay: Microbial challenge testing in alginogel with GOX+LPO; format: cell-based; conditions: for reduction in absolute C. albicans counts compared to guaiacol in the same concentration: alginogel with GOX+LPO, enhancer 0.0005%; for antimicrobial activity of enhancing candidate only against C. albicans: alginogel without enzymes, highest concentration tested; for reduction in absolute C. albicans counts compared to reference (enzymes only): alginogel, 0.0075% GOX+LPO
Experimental: (§1) To determine the ability of an antimicrobial agent to elicit an antimicrobial preserving efficacy in a gel environment, a microbiological challenge test can be performed. Here, the antimicrobial agent is a combination of the natural enzymes GOX+LPO. […] Microbial challenge testing was performed according to the method described in the European Pharmacopoeia current version chapter 5.1.3 ‘Efficacy of antimicrobial preservation’, but with adapted time points (0, 10, 20, 30, 40, 50, 60, 70 and 80 min instead of 0, 2, 7, 14 and 28 days). In brief, for every enhancing agent to be evaluated, a lab-scale alginogel (based on the Flaminal® formulation, but without the original enhancer guaiacol) including 0.0075% GOX+LPO (1:1) was prepared according to standard practices. Enhancing agents were added to the alginogel in a final concentration ranging from 0.01 to 0,00025% (v/w). As a reference, an alginogel including 0.0075% GOX+LPO (1:1) without the addition of any enhancing agent was included (designated as: enzymes only). As a control, an alginogel without both GOX+LPO (1:1) enzyme solution and enhancing agent (designated as: empty gel) as well as an alginogel only containing the enhancing agent only (designated as: enhancing candidate only) were included. After preparation, a homogenous sample of 10 g was transferred into a 50 ml conical tube for each alginogel to be evaluated and microorganism to be tested. For each test microorganism, including S. aureus (ATCC®6538™), P. aeruginosa (ATCC®9027™), C. albicans (ATCC®10231™) and A. niger (ATCC®16404 ™), a microbial suspension of about 10^8 CFU/ml was prepared in sterile diluent (buffered sodium chloride-peptone solution). Then, the 50 ml conical tubes containing the alginogel samples to be evaluated were inoculated with 100 μl of the designated inoculum. At the start (time point 0) and after 0, 10, 20, 30, 40, 50, 60, 70 and 80 min, the number of viable microorganisms per gram product (expressed as CFU/g) was determined by transferring a sample of 0.5 g of the product into a 15 ml conical tube containing 4.5 ml of sterile diluent and applying general dilution and plate count techniques. For each combination evaluated, this test was repeated at least 1-3 times. The collected data were further analyzed in MS Excel. Mean absolute counts (expressed as log CFU/g) were visualized in a graph.

A. niger (ATCC®16404 ™) = assay: as above; format: cell-based; conditions: for reduction in absolute A. niger counts compared to guaiacol in the same concentration: alginogel with GOX+LPO; for antimicrobial activity of enhancing candidate only against A. niger: alginogel without enzymes, highest concentration tested; for reduction in absolute A. niger counts compared to reference (enzymes only): alginogel, 0.0075% GOX+LPO
Experimental: as §1

[2] = system: P. aeruginosa (ATCC®9027™); assay: as above; format: cell-based; conditions: for reduction in absolute P. aeruginosa counts compared to guaiacol in the same concentration: alginogel with GOX+LPO, enhancer 0.0005%; for antimicrobial activity of enhancing candidate only against P. aeruginosa: alginogel without enzymes, highest concentration tested; for reduction in absolute P. aeruginosa counts compared to reference (enzymes only): alginogel, 0.0075% GOX+LPO
Experimental: as §1

[3] = exemplary values; cited from earlier work
[4] = system: Pseudomonas aeruginosa ATCC®9027™; assay: MIC determination, broth microdilution, GOX+LPO with potentiator candidate; format: cell-based; conditions: P. aeruginosa
Experimental: (§2) The minimum inhibitory concentration (MIC) is defined as the lowest concentration of an antimicrobial agent that results in a complete inhibition of microbial growth (determined via visual evaluation or absorbance measurements) after overnight incubation. This endpoint measurement is used to define the microbial susceptibility towards an antimicrobial agent. Here, the antimicrobial agent is a combination of the natural enzymes GOX+LPO.
(§3) To determine the MIC of the described combinations, a classical broth microdilution assay was used to determine the susceptibility of a series of microbes commonly detected in infected wounds, including (a) the Gram-positive bacterium Staphylococcus aureus ATCC® 6538™ (results shown below), (b) the Gram-negative bacterium Pseudomonas aeruginosa ATCC®9027™ (results shown below), (c) the yeast Candida albicans ATCC®10231™ (results shown below), and (d) the fungus Aspergillus niger ATCC®16404™ (results shown below). In brief, a […] serial dilution of the enzymatic GOX+LPO solution was prepared in a transparent, flat-bottomed 96-well test plate with final concentrations ranging from 0.005 to 0.00000977% (v/v). To each well, a fixed volume of the enzymatic substrate containing 3,3% (w/v) glucose and 0,084% (w/v) potassium iodide, as well as the microbial inoculum with an OD600 of 0.1 was added. In the event the enzyme combination was evaluated in the presence of a potentiator candidate, the latter was added together with the enzymatic substrate in a final concentration ranging from 100 to 0,00125% (v/v). For each combination evaluated, a blank (no addition of microbial inoculum) was included. Positive (inoculum only) and negative (background solution only) were included to evaluate the performance of the test and to select the enzymatic GOX+LPO concentration at which no microbial growth is detected (i.e., absorbance equal to that of the background solution only). Then, the 96-well test plate was incubated for 24 hours at 37° C. (S. aureus, P. aeruginosa and C. albicans) or 25° C. (A. niger). After incubation, the absorbance of each well was measured using a plate spectrophotometer (Spectramax ID3, Molecular Devices). For each combination evaluated, this test was repeated at least 5 times. The collected data were further analyzed in MS Excel. Mean absorbance data were visualized in a table format in which the MIC was highlighted.

[5] = system: Staphylococcus aureus ATCC® 6538™; assay: as above; format: cell-based; conditions: S. aureus
Experimental: as §2, §3

[6] = system: Aspergillus niger ATCC®16404™; assay: as above; format: cell-based; conditions: A. niger; enhancer 1%-0.01%
Experimental: as §2, §3

## N[C@@H](CO)C(=O)O [Serine, serine]
[1]
  reduction in absolute C. albicans counts compared to guaiacol in the same concentration: faster complete reduction
  antimicrobial activity of enhancing candidate only against C. albicans: no antimicrobial activity
[1]; enhancer 0.00125%
  reduction in absolute C. albicans counts compared to reference (enzymes only): faster complete reduction
[1]; enhancer 0.0025%
  reduction in absolute C. albicans counts compared to reference (enzymes only): immediate entire reduction
A. niger (ATCC®16404 ™); enhancer 0.0005%
  reduction in absolute A. niger counts compared to guaiacol in the same concentration: faster complete reduction
A. niger (ATCC®16404 ™)
  antimicrobial activity of enhancing candidate only against A. niger: no antimicrobial activity
A. niger (ATCC®16404 ™); enhancer 0,0025-0,0005%
  reduction in absolute A. niger counts compared to reference (enzymes only): faster complete reduction
[2]
  reduction in absolute P. aeruginosa counts compared to guaiacol in the same concentration: faster complete reduction
  antimicrobial activity of enhancing candidate only against P. aeruginosa: no antimicrobial activity
[2]; enhancer 0.00125-0.0005%
  reduction in absolute P. aeruginosa counts compared to reference (enzymes only): faster complete reduction
[2]; enhancer 0.0025%
  reduction in absolute P. aeruginosa counts compared to reference (enzymes only): immediate entire reduction
[3]
  LogP (octanol/water partition coefficient): LogP = −3.07
[4]; enhancer 0.0025-0.00125%
  MIC: GOX+LPO enzyme solution needed to completely inhibit growth: 0.000625 % (v/v)
  increase in MIC compared to reference or guaiacol solution: 2 ×
[4]; enhancer 0.01-0.005%
  MIC: GOX+LPO enzyme solution needed to completely inhibit growth: 0.000625 % (v/v)
  increase in MIC compared to reference or guaiacol solution: 2 ×
[5]; enhancer 0.0025% to 0.00125%
  MIC: GOX+LPO enzyme solution needed to completely inhibit growth: 0.0000391 % (v/v)
  increase in MIC compared to reference or guaiacol solution: 2 ×
[5]; enhancer 0.01% to 0.005%
  MIC: GOX+LPO enzyme solution needed to completely inhibit growth: 0.0000391 % (v/v)
  increase in MIC compared to reference or guaiacol solution: 2 ×
[5]; enhancer 10%
  MIC: GOX+LPO enzyme solution needed to completely inhibit growth: ≤ 0.0000977 % (v/v)
  increase in MIC compared to reference or guaiacol solution: ≥ 6 ×
[6]
  MIC: GOX+LPO enzyme solution needed to completely inhibit growth: 0.000156 % (v/v)
  increase in MIC compared to reference: 2 ×

## C[C@@H](O)[C@H](N)C(=O)O [Threonine, threonine]
[1]
  reduction in absolute C. albicans counts compared to guaiacol in the same concentration: faster complete reduction
  antimicrobial activity of enhancing candidate only against C. albicans: no antimicrobial activity
[1]; enhancer 0.0025%
  reduction in absolute C. albicans counts compared to reference (enzymes only): immediate entire reduction
[1]; enhancer 0,00125-0,0005%
  reduction in absolute C. albicans counts compared to reference (enzymes only): faster complete reduction
A. niger (ATCC®16404 ™); enhancer 0.0025%
  reduction in absolute A. niger counts compared to guaiacol in the same concentration: faster complete reduction
  reduction in absolute A. niger counts compared to reference (enzymes only): faster complete reduction
A. niger (ATCC®16404 ™)
  antimicrobial activity of enhancing candidate only against A. niger: no antimicrobial activity
[2]
  reduction in absolute P. aeruginosa counts compared to guaiacol in the same concentration: faster complete reduction
  antimicrobial activity of enhancing candidate only against P. aeruginosa: no antimicrobial activity
[2]; enhancer 0.00125-0.0005%
  reduction in absolute P. aeruginosa counts compared to reference (enzymes only): faster complete reduction
[2]; enhancer 0.0025%
  reduction in absolute P. aeruginosa counts compared to reference (enzymes only): immediate entire reduction
[3]
  LogP (octanol/water partition coefficient): LogP = −2.94
[4]; enhancer 0,1%
  MIC: GOX+LPO enzyme solution needed to completely inhibit growth: 0.000625 % (v/v)
  increase in MIC compared to reference: 2 ×
[4]; enhancer 1%
  MIC: GOX+LPO enzyme solution needed to completely inhibit growth: 0.000156 % (v/v)
  increase in MIC compared to reference: 8 ×
[5]; enhancer 0.01%
  MIC: GOX+LPO enzyme solution needed to completely inhibit growth: 0.0000391 % (v/v)
  increase in MIC compared to reference or guaiacol solution: 2 ×
[5]; enhancer 2%
  MIC: GOX+LPO enzyme solution needed to completely inhibit growth: 0.0000195 % (v/v)
  increase in MIC compared to reference or guaiacol solution: 4 ×
[6]
  MIC: GOX+LPO enzyme solution needed to completely inhibit growth: 0.000156 % (v/v)
  increase in MIC compared to reference: 2 ×
